From patent US8063225B2, “Tricyclic compound derivatives useful in the treatment of neoplastic diseases, inflammatory disorders and immunomodulatory disorders” (Chembridge Corporation, priority 2006, dated 2011)

Key:
[1] = target: T1, IGF1R tyrosine kinase (Homo sapiens, UniProt P08069); test: IGF1R tyrosine kinase assay (Kinase-Glo ATP depletion or PT66/PT100 AlphaScreen); conditions: biochemical tyrosine kinase assay
T1 construct: 6×His- or GST-tagged kinase domain fragments of the corresponding RTKs expressed in baculovirus system; host or cells: baculovirus system
T1 sequence (P08069 999-1274 limits assumed): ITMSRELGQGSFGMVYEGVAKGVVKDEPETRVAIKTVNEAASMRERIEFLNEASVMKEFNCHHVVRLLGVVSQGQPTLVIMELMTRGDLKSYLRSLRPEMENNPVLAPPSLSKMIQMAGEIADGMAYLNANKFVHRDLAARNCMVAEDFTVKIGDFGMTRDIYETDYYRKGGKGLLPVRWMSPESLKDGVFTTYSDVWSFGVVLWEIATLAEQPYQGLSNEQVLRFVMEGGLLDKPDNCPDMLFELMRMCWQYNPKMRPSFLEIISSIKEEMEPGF
Method in brief: (§1)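 Phosphorylation of poly(Glu-Tyr) by baculovirus-made kinase domains, 10 μM ATP, measured either as ATP depletion (Kinase-Glo, 37° C, 1 h) or phosphotyrosine AlphaScreen (room temperature, 30 min plus 60 min with beads).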

[2] = target: T2, Alk (Homo sapiens, UniProt Q9UM73); test: Tyrosine kinase assay (Kinase-Glo or AlphaScreen), Alk; conditions: biochemical tyrosine kinase assay
T2 construct: 6×His- or GST-tagged kinase domain fragments of the corresponding RTKs expressed in baculovirus system; host or cells: baculovirus system
T2 sequence (Q9UM73 1116-1392 limits assumed, species assumed): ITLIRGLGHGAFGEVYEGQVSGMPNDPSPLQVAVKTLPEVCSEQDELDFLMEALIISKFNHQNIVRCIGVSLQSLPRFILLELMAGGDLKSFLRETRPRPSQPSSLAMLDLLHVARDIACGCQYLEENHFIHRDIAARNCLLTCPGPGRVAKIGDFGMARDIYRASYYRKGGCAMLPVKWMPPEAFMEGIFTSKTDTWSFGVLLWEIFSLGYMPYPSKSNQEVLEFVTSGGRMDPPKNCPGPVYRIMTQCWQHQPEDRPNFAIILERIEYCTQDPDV
Method in brief: as §1

[3] = system: Karpas-299; test: Cell proliferation inhibition, Cell Titer-Glo, Karpas-299; assay type: cell-based; conditions: Homo sapiens; cell proliferation assay, Karpas-299 cells
Method in brief: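 In this standard 3-day proliferation assay, Karpas 299 cells plated at 2500-5000 cells per well in 384-well white, clear-bottomed plates were treated with compound dilutions. Cell Titer-Glo developing reagent was added following the manufacturer's protocol, luminescence reflecting ATP content was read on a multiwell plate reader, and IC50 curves were generated.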

[4] = system: H929 (multiple myeloma); test: Cell proliferation inhibition, Cell Titer-Glo, H929; assay type: cell-based; conditions: Homo sapiens, NCI-H929; cell proliferation assay, H929 cells
Method in brief: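 Cells seeded at 2500-5000 per well with serially diluted compound for typically 3 days. Viable cells measured by ATP luminescence (Cell Titer-Glo); IC50 from proliferation-inhibition curves.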

[5] = target: T3, Jak2 (Homo sapiens, UniProt O60674); test: Tyrosine kinase assay (Kinase-Glo or AlphaScreen), Jak2; conditions: biochemical tyrosine kinase assay
T3 construct: 6×His- or GST-tagged kinase domain fragments of the corresponding RTKs expressed in baculovirus system; host or cells: baculovirus system
T3 sequence (O60674 849-1124 limits assumed, species assumed): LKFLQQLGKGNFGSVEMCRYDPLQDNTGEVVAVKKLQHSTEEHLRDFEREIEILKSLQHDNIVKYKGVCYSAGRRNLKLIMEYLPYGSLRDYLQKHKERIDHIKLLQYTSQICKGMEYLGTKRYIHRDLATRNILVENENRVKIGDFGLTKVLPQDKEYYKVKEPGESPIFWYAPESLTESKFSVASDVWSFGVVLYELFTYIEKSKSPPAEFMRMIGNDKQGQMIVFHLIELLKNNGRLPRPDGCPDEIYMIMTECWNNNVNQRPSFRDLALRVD
Method in brief: as §1

[6] = system: K562; test: Cell proliferation inhibition, Cell Titer-Glo, K562; assay type: cell-based; conditions: Homo sapiens; cell proliferation assay, K562 cells
Method in brief: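 Proliferation inhibition in human K562 cells was assessed in a standard 3-day assay. Cells (2500-5000 per well) in 384-well white, clear-bottomed plates received serial compound dilutions, then Cell Titer-Glo reagent was added per the manufacturer's protocol. Luminescence reflecting ATP content of metabolically active cells was counted in a multiwell reader, and IC50 curves were generated.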

Row | Structure (SMILES) | IC50 [1] [nM] | IC50 [2] [µM] | IC50 [3] [µM] | IC50 [4] [µM] | IC50 [5] [µM] | IC50 [6] [µM]
1 | Cc1ccc(OC[C@@H](O)CNc2cc[nH]c(=O)c2-c2nc3cc4c(cc3[nH]2)C(=O)N([C@H]2CCN(C)C2)C4=O)c(C)c1 [compound 106] | < 500 | 0.5 to 5 | > 15 | 5 to 15 | 0.5 to 5 | 5 to 15
2 | CN1CCC(N2C(=O)c3cc4nc(-c5c(NC[C@@H](O)COc6cccc(OC(F)(F)C(F)F)c6)cc[nH]c5=O)[nH]c4cc3C2=O)CC1 [compound 91] | 5000 to 15000 | 0.5 to 5 | 5 to 15 | 0.5 to 5 | 0.5 to 5 | > 15
3 | O=C1c2cc3nc(-c4c(NC[C@@H](O)c5cccc(Cl)c5)cc[nH]c4=O)[nH]c3cc2C(=O)N1[C@@H]1CN2CCC1CC2 [compound 33] | < 500 | 0.5 to 5 | > 15 |  | 0.5 to 5 | 0.5 to 5
4 | Cc1c(Cl)cccc1OC[C@H](O)CNc1cc[nH]c(=O)c1-c1nc2cc3c(cc2[nH]1)C(=O)N(C1CCN(C)CC1)C3=O [compound 94] | < 500 | 0.5 to 5 | > 15 | 5 to 15 | 0.5 to 5 | > 15
5 | Cc1ccc(OCC(O)CNc2cc[nH]c(=O)c2-c2nc3cc4c(cc3[nH]2)C(=O)N(CC2CCN(CCO)CC2)C4=O)c(C)c1 (stereo not shown) [compound 37] | > 15000 | 5 to 15 | > 15 | 0.5 to 5 | 0.5 to 5 | > 15
6 | C[C@H](O)CN1C(=O)c2cc3nc(-c4c(NC[C@@H](O)c5cccc(Cl)c5)cc[nH]c4=O)[nH]c3cc2C1=O [compound 31] | 5000 to 15000 | > 15 | > 15 | 0.5 to 5 | 5 to 15 | 5 to 15
7 | Cc1ccc(OC[C@@H](O)CNc2cc[nH]c(=O)c2-c2nc3cc4c(cc3[nH]2)C(=O)N(C2CCN(C)CC2)C4=O)c(C)c1 [compound 64] | < 500 | 5 to 15 | > 15 |  | 0.5 to 5 | 5 to 15
8 | CN1CCC(N2C(=O)c3cc4nc(-c5c(NC[C@@H](O)c6cccc(Cl)c6)cc[nH]c5=O)[nH]c4cc3C2=O)CC1 [compound 1] | < 500 | 0.5 to 5 |  | 0.5 to 5 | 0.5 to 5 | 5 to 15
9 | CN1CCC(N2C(=O)c3cc4nc(-c5c(NC[C@@H](O)COc6c(F)ccc(Cl)c6F)cc[nH]c5=O)[nH]c4cc3C2=O)CC1 [compound 95] | < 500 | 0.5 to 5 | 5 to 15 | 5 to 15 | 0.5 to 5 | 5 to 15
10 | O=C1c2cc3nc(-c4c(NC[C@@H](O)c5cccc(Cl)c5)cc[nH]c4=O)[nH]c3cc2C(=O)N1CCc1ccncc1 [compound 28] | > 15000 | 5 to 15 | > 15 |  | 5 to 15 | > 15
11 | Cc1ncsc1CCN1C(=O)c2cc3nc(-c4c(NC[C@@H](O)c5cccc(Cl)c5)cc[nH]c4=O)[nH]c3cc2C1=O [compound 32] | 5000 to 15000 | > 15 | > 15 | 5 to 15 | > 15 | > 15
12 | O=C1c2cc3nc(-c4c(NC[C@@H](O)c5cccc(Cl)c5)cc[nH]c4=O)[nH]c3cc2C(=O)N1C[C@@H]1CCCO1 [compound 29] | > 15000 | > 15 | 5 to 15 |  | > 15 | 0.5 to 5
13 | CN1CCC(N2C(=O)c3cc4nc(-c5c(NC[C@@H](O)COc6cccc(-c7ccccc7)c6)cc[nH]c5=O)[nH]c4cc3C2=O)CC1 [compound 89] | 500 to 5000 | 0.5 to 5 | 0.5 to 5 | 5 to 15 | 0.5 to 5 | 5 to 15
14 | CN1CCC(N2C(=O)c3cc4nc(-c5c(N[C@H](CO)Cc6c[nH]cn6)cc[nH]c5=O)[nH]c4cc3C2=O)CC1 [compound 2] | > 15000 | > 15 | 5 to 15 |  | > 15 | 5 to 15
15 | CC(C)(CO)CN1C(=O)c2cc3nc(-c4c(NC[C@@H](O)c5cccc(Cl)c5)cc[nH]c4=O)[nH]c3cc2C1=O [compound 26] | 500 to 5000 | > 15 |  |  | 0.5 to 5 | 5 to 15
16 | COc1cccc(OCC(O)CNc2cc[nH]c(=O)c2-c2nc3cc4c(cc3[nH]2)C(=O)N(C2CCN(C)CC2)C4=O)c1 (stereo not shown) [compound 6] | < 500 | 0.5 to 5 |  | 5 to 15 | 0.5 to 5 | 
17 | Cc1ccc(OC[C@H](O)CNc2cc[nH]c(=O)c2-c2nc3cc4c(cc3[nH]2)C(=O)N(C2CCN(C)CC2)C4=O)c(C)c1 [compound 59] | < 500 | 0.5 to 5 | 0.5 to 5 | 0.5 to 5 | 0.5 to 5 | 5 to 15
18 | Cc1ccc(OC[C@H](O)CNc2cc[nH]c(=O)c2-c2nc3cc4c(cc3[nH]2)C(=O)N(C2CCN(C)CC2)C4=O)cc1Cl [compound 99] | < 500 | 5 to 15 | > 15 |  | 0.5 to 5 | > 15
19 | Cc1ccc(OCC(O)CNc2cc[nH]c(=O)c2-c2nc3cc4c(cc3[nH]2)C(=O)N(C2CCN(C)CC2)C4=O)c(C)c1 (stereo not shown) [compound 15] | < 500 | 5 to 15 |  | 0.5 to 5 | 0.5 to 5 | 0.5 to 5
20 | Cc1cc(C)n(C[C@H](O)CNc2cc[nH]c(=O)c2-c2nc3cc4c(cc3[nH]2)C(=O)N(C2CCN(C)CC2)C4=O)n1 [compound 92] | 5000 to 15000 | > 15 | > 15 |  | 5 to 15 | > 15

The remaining lines, values ahead:

Row | IC50 [1] [nM] | IC50 [2] [µM] | IC50 [3] [µM] | IC50 [4] [µM] | IC50 [5] [µM] | IC50 [6] [µM] | Structure (SMILES)
21 | < 500 | 0.5 to 5 | 0.5 to 5 | 5 to 15 | 0.5 to 5 | 5 to 15 | Cc1ccc(OC[C@H](O)CNc2cc[nH]c(=O)c2-c2nc3c(C)c4c(cc3[nH]2)C(=O)N(C2CCN(C)CC2)C4=O)c(C)c1 [compound 110]
22 | < 500 | < 0.5 |  | 5 to 15 | 0.5 to 5 |  | CCN1CCC(N2C(=O)c3cc4nc(-c5c(NC[C@@H](O)COc6ccc(C)cc6C)cc[nH]c5=O)[nH]c4cc3C2=O)CC1 [compound 143]
23 | < 500 | 0.5 to 5 |  | < 0.5 | < 0.5 | 5 to 15 | Cc1ccc(OC[C@H](O)CNc2cc[nH]c(=O)c2-c2nc3c(C)c4c(cc3[nH]2)CN(C2CCN(C)CC2)C4=O)c(C)c1 [compound 140]
24 | < 500 | 0.5 to 5 |  | < 0.5 | < 0.5 | > 15 | CCc1cc(C)ccc1OC[C@H](O)CNc1cc[nH]c(=O)c1-c1nc2cc3c(cc2[nH]1)CN(C1CCN(C)CC1)C3=O [compound 141]
25 | < 500 | < 0.5 |  | 0.5 to 5 | < 0.5 | > 15 | CCN1CCC(N2Cc3cc4nc(-c5c(NC[C@@H](O)COc6ccc(C)cc6C)cc[nH]c5=O)[nH]c4cc3C2=O)CC1 [compound 144]
26 | < 500 | 0.5 to 5 |  | 0.5 to 5 | < 0.5 | > 15 | Cc1ccc(OC[C@H](O)CNc2cc[nH]c(=O)c2-c2nc3cc4c(cc3[nH]2)CN(C2CCN(C)CC2)C4=O)c(C)c1 [compound 130]
27 | < 500 | 0.5 to 5 | > 15 | 5 to 15 | 0.5 to 5 | > 15 | Cc1ccc(OC[C@@H](O)CNc2cc[nH]c(=O)c2-c2nc3cc4c(cc3[nH]2)C(=O)N([C@@H]2CCN(C)C2)C4=O)c(C)c1 [compound 107]
28 | 500 to 5000 | 0.5 to 5 | 0.5 to 5 |  | 0.5 to 5 | > 15 | Cc1ccc(Cl)c(C)c1OC[C@H](O)CNc1cc[nH]c(=O)c1-c1nc2cc3c(cc2[nH]1)C(=O)N(C1CCN(C)CC1)C3=O [compound 111]
29 | < 500 | 0.5 to 5 |  |  | 0.5 to 5 | 5 to 15 | Cc1ccc(OC[C@H](O)CNc2cc[nH]c(=O)c2-c2nc3cc4c(cc3[nH]2)C(=O)N(C2CCNCC2)C4=O)c(C)c1 [compound 142]
30 | 500 to 5000 | 0.5 to 5 | 5 to 15 |  | 0.5 to 5 |  | Cc1cc(C)c(OC[C@H](O)CNc2cc[nH]c(=O)c2-c2nc3cc4c(cc3[nH]2)C(=O)N(C2CCN(C)CC2)C4=O)cc1Cl [compound 108]
31 | < 500 | 0.5 to 5 |  | < 0.5 | < 0.5 | > 15 | Cc1ccc(OC[C@H](O)CNc2cc[nH]c(=O)c2-c2nc3cc4c(c(C)c3[nH]2)CN(C2CCN(C)CC2)C4=O)c(C)c1 [compound 132]
32 | < 500 | 0.5 to 5 |  | 0.5 to 5 | 0.5 to 5 | > 15 | Cc1ccc(OC[C@H](O)CNc2cc[nH]c(=O)c2-c2nc3c(C)c4c(cc3[nH]2)C(=O)N(C2CCN(C)CC2)C4)c(C)c1 [compound 139]
